Measurements from US8916565B2, “Pyrrolopyrazine-spirocyclic piperidine amides as modulators of ion channels” (priority 2011, dated 2014).

Biological target: human NaV subtype, like NaV 1.7 (Homo sapiens, UniProt Q15858)
Assay: E-VIPR optical membrane potential assay with electrical stimulation
Format: cell-based
Details: active against one or more sodium channels; Table 3 does not name the assay or NaV subtype; read-out: Binned Activity Data (IC50)

Sequence of human NaV subtype, like NaV 1.7 (Q15858 whole entry): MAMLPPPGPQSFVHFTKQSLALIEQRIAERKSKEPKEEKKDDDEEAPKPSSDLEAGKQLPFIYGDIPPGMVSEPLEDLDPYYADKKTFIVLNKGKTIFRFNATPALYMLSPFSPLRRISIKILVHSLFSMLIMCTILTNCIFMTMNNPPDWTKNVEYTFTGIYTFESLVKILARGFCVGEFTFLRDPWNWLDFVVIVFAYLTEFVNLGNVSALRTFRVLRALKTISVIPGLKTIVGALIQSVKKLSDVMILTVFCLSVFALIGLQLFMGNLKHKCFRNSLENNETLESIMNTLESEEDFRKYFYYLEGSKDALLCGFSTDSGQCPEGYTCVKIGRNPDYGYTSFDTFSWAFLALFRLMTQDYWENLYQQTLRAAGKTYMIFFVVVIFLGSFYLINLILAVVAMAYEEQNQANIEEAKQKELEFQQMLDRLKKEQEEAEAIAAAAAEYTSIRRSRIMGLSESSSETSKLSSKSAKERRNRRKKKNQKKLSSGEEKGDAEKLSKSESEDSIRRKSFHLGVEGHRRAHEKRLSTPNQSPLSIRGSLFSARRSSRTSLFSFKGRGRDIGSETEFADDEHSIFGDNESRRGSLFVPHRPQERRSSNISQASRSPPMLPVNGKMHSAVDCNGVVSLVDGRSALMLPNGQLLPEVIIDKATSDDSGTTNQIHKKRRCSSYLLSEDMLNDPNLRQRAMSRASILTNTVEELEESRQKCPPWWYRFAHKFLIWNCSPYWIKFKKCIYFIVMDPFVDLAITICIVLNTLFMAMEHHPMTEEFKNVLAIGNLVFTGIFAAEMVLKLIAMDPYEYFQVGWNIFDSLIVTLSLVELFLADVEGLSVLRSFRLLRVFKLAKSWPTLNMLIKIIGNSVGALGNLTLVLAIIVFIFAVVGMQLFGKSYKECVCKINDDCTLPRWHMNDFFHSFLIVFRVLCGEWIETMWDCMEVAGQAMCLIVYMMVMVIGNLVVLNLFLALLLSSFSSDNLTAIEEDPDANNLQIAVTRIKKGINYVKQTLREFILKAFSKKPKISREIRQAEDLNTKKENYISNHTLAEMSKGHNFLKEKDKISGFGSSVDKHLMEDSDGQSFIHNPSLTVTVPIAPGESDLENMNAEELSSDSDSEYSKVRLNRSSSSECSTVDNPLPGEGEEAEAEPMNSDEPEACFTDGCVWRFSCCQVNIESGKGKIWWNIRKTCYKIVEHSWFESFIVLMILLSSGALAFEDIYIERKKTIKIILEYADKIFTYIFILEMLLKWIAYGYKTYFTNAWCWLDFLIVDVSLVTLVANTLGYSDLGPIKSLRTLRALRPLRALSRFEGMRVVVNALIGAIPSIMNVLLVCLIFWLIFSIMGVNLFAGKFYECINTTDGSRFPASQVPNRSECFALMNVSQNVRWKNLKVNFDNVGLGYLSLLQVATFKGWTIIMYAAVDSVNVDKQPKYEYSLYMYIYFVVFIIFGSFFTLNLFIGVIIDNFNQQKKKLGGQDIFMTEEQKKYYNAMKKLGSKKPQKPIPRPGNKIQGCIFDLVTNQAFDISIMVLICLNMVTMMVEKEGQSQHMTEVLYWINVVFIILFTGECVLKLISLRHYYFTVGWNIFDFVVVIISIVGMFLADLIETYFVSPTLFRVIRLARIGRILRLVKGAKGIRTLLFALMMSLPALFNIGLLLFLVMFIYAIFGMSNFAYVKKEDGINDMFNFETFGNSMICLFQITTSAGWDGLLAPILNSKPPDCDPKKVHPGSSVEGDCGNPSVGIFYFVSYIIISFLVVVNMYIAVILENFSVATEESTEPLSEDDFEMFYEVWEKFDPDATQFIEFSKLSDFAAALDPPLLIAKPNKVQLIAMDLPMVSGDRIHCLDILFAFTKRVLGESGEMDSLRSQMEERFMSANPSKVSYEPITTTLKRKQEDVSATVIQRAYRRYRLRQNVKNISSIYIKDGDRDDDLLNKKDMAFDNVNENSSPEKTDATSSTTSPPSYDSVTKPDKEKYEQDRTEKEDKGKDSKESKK

Q: For CCOc1cc(C(=O)N2CCC3(CC2)c2ccc(C(F)(F)F)n2CCN3C)ccc1OC [Compound 730], which IC50 is on record?
A: ≤ 2000 nM

Q: With Cc1ccnc2c(C(=O)N3CCC4(CC3)c3ccc(C(F)(F)F)n3CCN4C)cnn12 [Compound 731] as the compound, how does the IC50 read?
A: 2000 to 5000 nM

Q: How did the IC50 turn out when CC(=O)c1ccc2n1CCN(C)C21CCN(C(=O)c2ccc(OC(C)C)c(C(F)(F)F)c2)CC1 [Compound 732] was run?
A: ≤ 2000 nM

Q: For CN1CCn2c(C(=O)C(F)(F)F)ccc2C12CCN(C(=O)c1ccc(O)c(C(F)(F)F)c1)CC2 [Compound 733], which IC50 is on record?
A: ≤ 2000 nM

Q: CC(=O)c1ccc2n1CCN(C)C21CCN(C(=O)c2ccc(OC(C)C)c(F)c2)CC1 [Compound 734] was tested. Which IC50 did it give?
A: > 5000 nM

Q: Which IC50 does the source give for COc1ccc(C(=O)N2CCC3(CC2)c2ccc(C(=O)C(C)C)n2CCN3C)cc1C(F)(F)F [Compound 735] here?
A: ≤ 2000 nM

Q: Which IC50 does the source give for COCCOc1ccc(C(=O)N2CCC3(CC2)c2c(F)cc(C(F)(F)F)n2CCN3C)cc1 [Compound 736] here?
A: ≤ 2000 nM

Q: For CCNc1cc(C)nc2c(C(=O)N3CCC4(CC3)c3ccc(C(F)(F)F)n3CCN4C)cnn12 [Compound 737], which IC50 is on record?
A: ≤ 2000 nM

Q: For COc1ccc(C(=O)N2CCC3(CC2)NC(C)(C)Cn2c(C(=O)C(F)(F)F)ccc23)c(C)c1 [Compound 738], which IC50 is on record?
A: ≤ 2000 nM

Q: For CC(=O)c1ccc2n1CCN(C)C21CCN(C(=O)c2ccc(C(OCC(F)(F)F)OCC(F)(F)F)c(Cl)c2)CC1 [Compound 739], which IC50 is on record?
A: > 5000 nM

Q: Which IC50 does the source give for CCCCc1ccc(C(=O)N2CCC3(CC2)c2ccc(C(=O)C(F)(F)F)n2CCN3C)cc1 [Compound 740] here?
A: ≤ 2000 nM

Q: For CCOC(=O)N1CCn2c(C(F)(F)F)ccc2C12CCN(C(=O)c1ccc(OC(C)C)c(OC)c1)CC2 [Compound 741], which IC50 is on record?
A: ≤ 2000 nM

Q: Which IC50 does the source give for COc1cc(C(=O)N2CCC3(CC2)c2c(C#N)cc(C(F)(F)F)n2CCN3C)ccc1OC(C)C [Compound 742] here?
A: 2000 to 5000 nM

Q: How did the IC50 turn out when CN1CCn2c(ccc2C(F)(F)C(F)(F)F)C12CCN(C(=O)c1ccc(C(C)(C)O)cc1)CC2 [Compound 743] was run?
A: ≤ 2000 nM

Q: For CC(C)Oc1ccc(C(=O)N2CCC3(CC2)c2ccc(C(=O)C4CC4)n2CCN3C)cc1F [Compound 744], which IC50 is on record?
A: ≤ 2000 nM

Q: Which IC50 does the source give for CC[C@@H](C)Oc1ccc(C(=O)N2CCC3(CC2)NCCn2c(C(F)(F)F)ccc23)cc1OC [Compound 745] here?
A: ≤ 2000 nM

Q: COc1ccc(C(=O)N2CCC3(CC2)c2ccc(C(=O)C(F)(F)F)n2CCN3C)nc1C [Compound 746] was tested. Which IC50 did it give?
A: ≤ 2000 nM

Q: How did the IC50 turn out when COc1ccc(C(=O)N2CCC3(CC2)c2ccc(C(=O)C(F)(F)F)n2C(C)CN3C)cc1Cl (centres unmarked) [Compound 747] was run?
A: ≤ 2000 nM

Q: For CN1CC(C)(C)n2c(C(=O)C(F)(F)F)ccc2C12CCN(C(=O)c1ccc(C(C)(C)O)c(F)c1)CC2 [Compound 748], which IC50 is on record?
A: > 5000 nM

Q: How did the IC50 turn out when CC(C)Oc1ccc(C(=O)N2CCC3(CC2)c2ccc(C(F)(F)F)n2C[C@@H](C)N3C)c(F)c1 [Compound 749] was run?
A: 2000 to 5000 nM

Q: Which IC50 does the source give for Cc1cc(C(=O)N2CCC3(CC2)c2ccc(Cl)n2CCN3C)ccc1S(=O)(=O)C(C)C [Compound 750] here?
A: > 5000 nM

Q: For C=C(C)Oc1ccc(C(=O)N2CCC3(CC2)c2ccc(C(F)(F)F)n2CCN3C)cc1OC [Compound 751], which IC50 is on record?
A: ≤ 2000 nM

Q: With CN1CCn2c(C(=O)C(F)(F)F)ccc2C12CCN(C(=O)c1ccc(S(=O)(=O)N(C)c3nccs3)cc1)CC2 [Compound 752] as the compound, how does the IC50 read?
A: ≤ 2000 nM
